Earlier results on two compounds are cited in patent publication US20050147620A1, “Cinnamon formulation for reducing cholesterol and/or glucose levels” (priority 2004, published 2005).

The conditions of data set [1]: ingestion of 20 to 30 g per day for several days.

As to `O=C(O)CCCCC1CCSS1` (stereo not drawn) [lipoic acid, α-lipoic acid], the pKa (commonly the pH at which an ionisable group is half protonated) is on record as 4.7.
On to `CN(CC(=O)O)C(=N)N.O` [creatine monohydrate], for which the “increase in human skeletal muscle total creatine content” value in data set [1] was “greater than 20%”.
